Target: recombinant human His-ATG7 enzyme (Homo sapiens (Human), UniProt O95352)
Experiment: ATG7 Enzyme Assay (HTRF/FRET, ATG3-GST and Flag-Gabarap)
Format: biochemical
Details: for inhibition at 0.123 µM / inhibition at 0.111 µM / inhibition at 0.069 µM: read-out: Percent Inhibition; for inhibition at 0.069 µM: Concentration 0.069 μM
In short: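 0.15 nM His-ATG7 was reacted with 5 nM ATG3-GST, 5 nM Flag-Gabarap and 10 μM ATP in HEPES pH 7.5 containing MgCl2, GSH and TCEP for 105 min at 24° C, then stopped with EDTA/KF. Eu-anti-Flag and anti-GST-APC HTRF was read after 2 h. Results are given as single-concentration % inhibition or IC50.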

Sequence of recombinant human His-ATG7 enzyme (O95352 whole entry): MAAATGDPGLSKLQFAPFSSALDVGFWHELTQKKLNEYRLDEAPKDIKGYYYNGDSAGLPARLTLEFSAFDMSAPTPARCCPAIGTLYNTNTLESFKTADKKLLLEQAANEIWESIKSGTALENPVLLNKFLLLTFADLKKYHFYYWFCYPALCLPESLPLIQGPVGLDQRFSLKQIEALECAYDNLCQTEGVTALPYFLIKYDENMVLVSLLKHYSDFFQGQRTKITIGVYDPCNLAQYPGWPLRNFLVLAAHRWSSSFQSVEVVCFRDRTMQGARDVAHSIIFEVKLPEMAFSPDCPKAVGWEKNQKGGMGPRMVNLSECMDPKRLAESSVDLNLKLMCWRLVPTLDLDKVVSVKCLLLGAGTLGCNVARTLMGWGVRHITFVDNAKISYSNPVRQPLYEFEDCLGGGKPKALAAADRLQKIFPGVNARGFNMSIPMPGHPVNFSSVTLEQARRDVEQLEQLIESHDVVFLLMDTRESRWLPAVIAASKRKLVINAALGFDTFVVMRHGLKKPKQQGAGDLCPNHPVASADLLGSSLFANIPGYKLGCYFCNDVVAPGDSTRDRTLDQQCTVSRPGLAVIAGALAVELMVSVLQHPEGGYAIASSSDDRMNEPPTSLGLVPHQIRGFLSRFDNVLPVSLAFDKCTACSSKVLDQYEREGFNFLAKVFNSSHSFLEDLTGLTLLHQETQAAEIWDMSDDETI

## Nc1ncnc2c1c(SC(F)F)nn2[C@@H]1O[C@H](COS(N)(=O)=O)[C@@H](O)[C@H]1O [Compound I-85, [(2R,3S,4R,5R)-5-{4-amino-3-[(difluoromethyl)sulfanyl]-1H-pyrazolo[3,4-d]pyrimidin-1-yl}-3,4-dihydroxytetrahydrofuran-2-yl]methyl sulfamate]
  IC50: 20 to 50 nM
Concentration 0.123 μM
  inhibition at 0.123 µM: 77%

## Nc1ncnc2c1c(SCC1(O)CCCCC1)nn2[C@@H]1O[C@H](COS(N)(=O)=O)[C@@H](O)[C@H]1O [Compound I-86, [(2R,3S,4R,5R)-5-(4-amino-3-{[(1-hydroxycyclohexyl)methyl]sulfanyl}-1H-pyrazolo[3,4-d]pyrimidin-1-yl)-3,4-dihydroxytetrahydrofuran-2-yl]methyl Sulfamate]
  IC50: 50 to 100 nM
Concentration 0.123 μM
  inhibition at 0.123 µM: 64%

## Nc1ncnc2c1c(CCc1ccccc1)nn2[C@@H]1O[C@H](COS(N)(=O)=O)[C@@H](O)[C@H]1O [Compound I-12, {(2R,3S,4R,5R)-5-[4-amino-3-(2-phenylethyl)-1H-pyrazolo[3,4-d]pyrimidin-1-yl]-3,4-dihydroxytetrahydrofuran-2-yl}methyl Sulfamate]
  IC50: 100 to 500 nM
Concentration 0.123 μM
  inhibition at 0.123 µM: 20%

## Nc1ncnc2c1c(SCc1cccnc1)nn2[C@@H]1O[C@H](COS(N)(=O)=O)[C@@H](O)[C@@H]1F [Compound I-121, [(2R,3R,4S,5R)-5-{4-amino-3-[(pyridin-3-ylmethyl)sulfanyl]-1H-pyrazolo[3,4-d]pyrimidin-1-yl}-4-fluoro-3-hydroxytetrahydrofuran-2-yl]methyl sulfamate]
  IC50: 50 to 100 nM
Concentration 0.111 μM
  inhibition at 0.111 µM: 65%

## CSc1nn([C@@H]2O[C@H](COS(N)(=O)=O)[C@@H](O)[C@@H]2F)c2ncnc(N)c12 [Compound I-115, {(2R,3R,4S,5R)-5-[4-amino-3-(methylsulfanyl)-1H-pyrazolo[3,4-d]pyrimidin-1-yl]-4-fluoro-3-hydroxytetrahydrofuran-2-yl}methyl Sulfamate]
  IC50: 20 to 50 nM
Concentration 0.123 μM
  inhibition at 0.123 µM: 73%

## Nc1ncnc2c1c(SCC1CC1)nn2[C@@H]1O[C@H](COS(N)(=O)=O)[C@@H](O)[C@H]1O [Compound I-50, [(2R,3S,4R,5R)-5-{4-amino-3-[(cyclopropylmethyl)sulfanyl]-1H-pyrazolo[3,4-d]pyrimidin-1-yl}-3,4-dihydroxytetrahydrofuran-2-yl]methyl sulfamate]
  IC50: < 20 nM
Concentration 0.111 μM
  inhibition at 0.111 µM: 88%

## CCC(C)Sc1nn([C@@H]2O[C@H](COS(N)(=O)=O)[C@@H](O)[C@@H]2F)c2ncnc(N)c12 (single isomer, unassigned) [Compound I-136a]
  IC50: 50 to 100 nM
Concentration 0.111 μM
  Percent Inhibition: 63%

## COc1ccc(CSc2nn([C@@H]3O[C@H](COS(N)(=O)=O)[C@@H](O)[C@H]3O)c3ncnc(N)c23)cc1 [Compound I-38, [(2R,3S,4R,5R)-5-{4-amino-3-[(4-methoxybenzyl)sulfanyl]-1H-pyrazolo[3,4-d]pyrimidin-1-yl}-3,4-dihydroxytetrahydrofuran-2-yl]methyl sulfamate]
  IC50: 20 to 50 nM
Concentration 0.123 μM
  inhibition at 0.123 µM: 84%

## Cc1ccc(Sc2nn([C@H]3C[C@H](O)[C@H](COS(N)(=O)=O)O3)c3ncnc(N)c23)cc1 [Compound I-214, [(2S,3S,5R)-5-{4-amino-3-[(4-methylphenyl)sulfanyl]-1H-pyrazolo[3,4-d]pyrimidin-1-yl}-3-hydroxytetrahydrofuran-2-yl]methyl sulfamate]
  IC50: 100 to 500 nM
Concentration 0.111 μM
  inhibition at 0.111 µM: 43%

## CCOc1nn([C@@H]2O[C@H](COS(N)(=O)=O)[C@@H](O)[C@H]2O)c2ncnc(N)c12 [Compound I-5, [(2R,3S,4R,5R)-5-(4-amino-3-ethoxy-1H-pyrazolo[3,4-d]pyrimidin-1-yl)-3,4-dihydroxytetrahydrofuran-2-yl]methyl Sulfamate]
  IC50: 100 to 500 nM
  inhibition at 0.069 µM: 23%

## Nc1ncnc2c1c(SC1CC1)nn2[C@H]1C[C@H](O)[C@@H](COS(N)(=O)=O)O1 [Compound I-167, {(2R,3S,5R)-5-[4-amino-3-(cyclopropylsulfanyl)-1H-pyrazolo[3,4-d]pyrimidin-1-yl]-3-hydroxytetrahydrofuran-2-yl}methyl sulfamate]
  IC50: 50 to 100 nM
Concentration 0.111 μM
  inhibition at 0.111 µM: 68%

## Nc1ncnc2c1c(SCC1CC1(F)F)nn2[C@@H]1O[C@H](COS(N)(=O)=O)[C@@H](O)[C@@H]1F (mixture of isomers) [Compound I-131, {(2R,3R,4S,5R)-5-[4-amino-3-({[(1R)-2,2-difluorocyclopropyl]methyl}sulfanyl)-1H-pyrazolo[3,4-d]pyrimidin-1-yl]-4-fluoro-3-hydroxytetrahydrofuran-2-yl}methyl sulfamate and {(2R,3R,4S,5R)-5-[4-amino-3-({[(1S)-2,2-difluorocyclopropyl]methyl}sulfanyl)-1H-pyrazolo[3,4-d]pyrimidin-1-yl]-4-fluoro-3-hydroxytetrahydrofuran-2-yl}methyl sulfamate]
  IC50: 20 to 50 nM
Concentration 0.111 μM
  inhibition at 0.111 µM: 76%

## Cc1ccccc1Sc1nn([C@H]2C[C@H](O)[C@@H](COS(N)(=O)=O)O2)c2ncnc(N)c12 [Compound I-176, [(2R,3S,5R)-5-{4-amino-3-[(2-methylphenyl)sulfanyl]-1H-pyrazolo[3,4-d]pyrimidin-1-yl}-3-hydroxytetrahydrofuran-2-yl]methyl sulfamate]
  IC50: 100 to 500 nM
Concentration 0.111 μM
  inhibition at 0.111 µM: 26%

## CC#Cc1nn([C@@H]2O[C@H](COS(N)(=O)=O)[C@@H](O)[C@H]2O)c2ncnc(N)c12 [Compound I-14, {(2R,3S,4R,5R)-5-[4-amino-3-(prop-1-yn-1-yl)-1H-pyrazolo[3,4-d]pyrimidin-1-yl]-3,4-dihydroxytetrahydrofuran-2-yl}methyl Sulfamate]
  IC50: 100 to 500 nM
  inhibition at 0.069 µM: 17%

## CC(O)CSc1nn([C@@H]2O[C@H](COS(N)(=O)=O)[C@@H](O)[C@H]2O)c2ncnc(N)c12 (single isomer, unassigned) [Compound I-55a, [(2R,3S,4R,5R)-5-(4-amino-3-{[(2R)-2-hydroxypropyl]sulfanyl}-1H-pyrazolo[3,4-d]pyrimidin-1-yl)-3,4-dihydroxytetrahydrofuran-2-yl]methyl sulfamate or [(2R,3S,4R,5R)-5-(4-amino-3-{[(2S)-2-hydroxypropyl]sulfanyl}-1H-pyrazolo[3,4-d]pyrimidin-1-yl)-3,4-dihydroxytetrahydrofuran-2-yl]methyl Sulfamate]
  IC50: 50 to 100 nM
Concentration 0.123 μM
  Percent Inhibition: 71%

## NC(=O)c1nn([C@@H]2O[C@H](COS(N)(=O)=O)[C@@H](O)[C@H]2O)c2ncnc(N)c12 [Compound I-16, [(2R,3S,4R,5R)-5-(4-amino-3-carbamoyl-1H-pyrazolo[3,4-d]pyrimidin-1-yl)-3,4-dihydroxytetrahydrofuran-2-yl]methyl Sulfamate]
  IC50: 100 to 500 nM
  inhibition at 0.069 µM: 22%

## CC(C)(C)c1ccc(Sc2nn([C@H]3C[C@H](O)[C@@H](COS(N)(=O)=O)O3)c3ncnc(N)c23)cc1 [Compound I-163, [(2R,3S,5R)-5-{4-amino-3-[(4-tert-butylphenyl)sulfanyl]-1H-pyrazolo[3,4-d]pyrimidin-1-yl}-3-hydroxytetrahydrofuran-2-yl]methyl sulfamate]
  IC50: 50 to 100 nM
Concentration 0.111 μM
  inhibition at 0.111 µM: 58%

## COc1ccc(Sc2nn([C@H]3C[C@H](O)[C@@H](COS(N)(=O)=O)O3)c3ncnc(N)c23)c(F)c1 [Compound I-178, [(2R,3S,5R)-5-{4-amino-3-[(2-fluoro-4-methoxyphenyl)sulfanyl]-1H-pyrazolo[3,4-d]pyrimidin-1-yl}-3-hydroxytetrahydrofuran-2-yl]methyl sulfamate]
  IC50: 20 to 50 nM
Concentration 0.111 μM
  inhibition at 0.111 µM: 74%

## Nc1ncnc2c1c(SC1CCCC1)nn2[C@@H]1O[C@H](COS(N)(=O)=O)[C@@H](O)[C@H]1O [Compound I-62, {(2R,3S,4R,5R)-5-[4-amino-3-(cyclopentylsulfanyl)-1H-pyrazolo[3,4-d]pyrimidin-1-yl]-3,4-dihydroxytetrahydrofuran-2-yl}methyl sulfamate]
  IC50: < 20 nM
Concentration 0.123 μM
  inhibition at 0.123 µM: 89%

## CC1OCCC1Sc1nn([C@@H]2O[C@H](COS(N)(=O)=O)[C@@H](O)[C@H]2O)c2ncnc(N)c12 (stereo partly drawn) [Compound I-92]
  IC50: 100 to 500 nM
Concentration 0.123 μM
  inhibition at 0.123 µM: 50%

## Nc1ncnc2c1c(SCCO)nn2[C@H]1C[C@H](O)[C@@H](COS(N)(=O)=O)O1 [Compound I-162, [(2R,3S,5R)-5-{4-amino-3-[(2-hydroxyethyl)sulfanyl]-1H-pyrazolo[3,4-d]pyrimidin-1-yl}-3-hydroxytetrahydrofuran-2-yl]methyl Sulfamate]
  IC50: 100 to 500 nM
Concentration 0.111 μM
  inhibition at 0.111 µM: 50%

## Nc1ncnc2c1c(SC1CCC1)nn2[C@H]1C[C@H](O)[C@@H](COS(N)(=O)=O)O1 [Compound I-164, {(2R,3S,5R)-5-[4-amino-3-(cyclobutylsulfanyl)-1H-pyrazolo[3,4-d]pyrimidin-1-yl]-3-hydroxytetrahydrofuran-2-yl}methyl sulfamate]
  IC50: 50 to 100 nM
Concentration 0.111 μM
  inhibition at 0.111 µM: 70%

## CC(C)(O)c1nn([C@@H]2O[C@H](COS(N)(=O)=O)[C@@H](O)[C@H]2O)c2ncnc(N)c12 [Compound I-24, {(2R,3S,4R,5R)-5-[4-amino-3-(2-hydroxypropan-2-yl)-1H-pyrazolo[3,4-d]pyrimidin-1-yl]-3,4-dihydroxytetrahydrofuran-2-yl}methyl Sulfamate]
  IC50: > 500 nM
Concentration 0.123 μM
  inhibition at 0.123 µM: 11%

## NCc1nn([C@@H]2O[C@H](COS(N)(=O)=O)[C@@H](O)[C@H]2O)c2ncnc(N)c12 [Compound I-15, {(2R,3S,4R,5R)-5-[4-amino-3-(aminomethyl)-1H-pyrazolo[3,4-d]pyrimidin-1-yl]-3,4-dihydroxytetrahydrofuran-2-yl}methyl Sulfamate]
  IC50: > 500 nM
  inhibition at 0.069 µM: 16%

Source: patent US10865208B2, “ATG7 inhibitors and the uses thereof” (Millennium Pharmaceuticals, Inc., priority 2016, dated 2020)
